Non-standard residues stand in square brackets, D forms with d. Residues, ends and D or L forms follow the SMILES beside them. *: point of attachment. d(pY) = N[C@H](Cc1ccc(OP(=O)(O)O)cc1)C(=O)O; Acetyl(2-naphthyl) = O=C(Cc1ccc2ccccc2c1)*; pY = N[C@@H](Cc1ccc(OP(=O)(O)O)cc1)C(=O)O
Columns and labels:
HeLa cells = conditions: 48 h
proteinase K = proteinase K (Parengyodontium album, UniProt P06873)
[1] = assay type: physicochemical; conditions: pH 7.4
[2] = assay type: physicochemical; conditions: pH 7.4; remark: listed apart in the source
[3] = assay type: physicochemical; conditions: pH 7.4; remark: listed apart in the source

proteinase K, sequence (P06873 106-384): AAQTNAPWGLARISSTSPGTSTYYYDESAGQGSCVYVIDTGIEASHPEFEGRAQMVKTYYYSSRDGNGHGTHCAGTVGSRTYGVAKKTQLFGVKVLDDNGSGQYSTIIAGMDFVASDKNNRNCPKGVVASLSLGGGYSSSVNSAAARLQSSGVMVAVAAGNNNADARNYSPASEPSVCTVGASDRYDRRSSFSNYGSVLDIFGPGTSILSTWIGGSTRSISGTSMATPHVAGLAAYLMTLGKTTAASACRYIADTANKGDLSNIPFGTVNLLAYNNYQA

Row | SMILES | IC50 (HeLa cells) | proteolytic stability towards proteinase K (proteinase K) | ALP gel: dynamic strain sweep, Max. G′ [1] | ALP gel: dynamic strain sweep, critical strains [1] | ALP gel: TEM fiber width [2] | time to hydrogel after addition of ALP [3]
1 | NC(=O)CC[C@@H](NC(=O)[C@@H](CCC(N)=O)NC(=O)[C@@H](CC(N)=O)NC(=O)[C@@H](CC(N)=O)NC(=O)CNC(=O)[C@@H](Cc1ccccc1)NC(=O)[C@@H](Cc1ccccc1)NC(=O)Cc1ccc2ccccc2c1)C(=O)N[C@H](CC(N)=O)C(=O)N[C@H](Cc1ccc(OP(=O)(O)O)cc1)C(=O)O [Precursor D-3P, N’ffgnnqqnyp] ({Acetyl(2-naphthyl)}-[dF][dF]G[dN][dN][dQ][dQ][dN][d(pY)]-OH) | > 500 µM | high resistance | – | – | – | –
2 | NC(=O)CC[C@@H](NC(=O)[C@@H](CCC(N)=O)NC(=O)[C@@H](CC(N)=O)NC(=O)[C@@H](CC(N)=O)NC(=O)CNC(=O)[C@@H](Cc1ccccc1)NC(=O)[C@@H](Cc1ccccc1)NC(=O)Cc1ccc2ccccc2c1)C(=O)N[C@H](CC(N)=O)C(=O)N[C@H](Cc1ccc(O)cc1)C(=O)O [Precursor D-3] ({Acetyl(2-naphthyl)}-[dF][dF]G[dN][dN][dQ][dQ][dN][dY]-OH) | – | – | 132 Pa | 7.0% | – | –
3 | NC(=O)CC[C@H](NC(=O)[C@H](CCC(N)=O)NC(=O)[C@H](CC(N)=O)NC(=O)[C@H](CC(N)=O)NC(=O)CNC(=O)[C@H](Cc1ccccc1)NC(=O)[C@H](Cc1ccccc1)NC(=O)Cc1ccc2ccccc2c1)C(=O)N[C@@H](CC(N)=O)C(=O)N[C@@H](Cc1ccc(OP(=O)(O)O)cc1)C(=O)O [Precursor L-3P, N’FFGNNQQNYp] ({Acetyl(2-naphthyl)}-FFGNNQQN[pY]-OH) | 476 ± 21.4 µM | almost completely degrade | 32.8 Pa | 13.2% | 8 ± 2 nm | 10 min
4 | NC(=O)CC[C@H](NC(=O)[C@H](CCC(N)=O)NC(=O)[C@H](CC(N)=O)NC(=O)[C@H](CC(N)=O)NC(=O)CNC(=O)[C@H](Cc1ccccc1)NC(=O)[C@H](Cc1ccccc1)NC(=O)Cc1ccc2ccccc2c1)C(=O)N[C@@H](CC(N)=O)C(=O)N[C@@H](Cc1ccc(O)cc1)C(=O)O [Precursor L-3] ({Acetyl(2-naphthyl)}-FFGNNQQNY-OH) | – | – | 33 Pa | 13.2% | about 8 ± 2 nm | –
